The nature of the data set: Human HepG2 cell viability assay in 384 well format. On the set-up: dose 125 nL, time 70.5 hour; concentration not given beside the values. The conditions noted are these: HepG2 cells, read-out: Inhibition. Type of data set: toxicity, cell-based.
With `CC1(C(=O)N2CCOCC2)CN(Cc2c[nH]cn2)CCO1` (stereo not given), the cytotoxicity at 70.5 h was -0.532%.
As to `COc1ccc(N2CCN(C(=O)CCn3nccc3C)C(C)C2)cc1` (stereo not given), the cytotoxicity at 70.5 h is -3.13%.
As for `CC(=O)c1cnc(NCCc2csc(-c3cnccn3)n2)nc1C`, the figure is -10.8%.
Under `O=C(NCc1cccnc1)NC1CCCN(c2ncccn2)C1` (stereo not given) stands -10.3%.
As for `CCc1ccsc1C(=O)N1CCS(=O)(=O)CC1`, the figure is -8.8%; as for `Cc1cnc(NC2CCc3c(ccc(=O)n3CC3CC3)C2)nc1` (stereo not given), -5.47%.
`Cn1nc(CN2CCCN(C3CCCC3)CC2)c2c(Cl)cccc21`: the cytotoxicity at 70.5 h is -6.04%.
Under `COc1cc(CNCc2c(C(C)C)nn(C)c2N(C)C)ccn1` stands -5.93%; under `CNC(=O)CN1CCC(NC(=O)Cc2ccc3c(c2)OCCO3)CC1`, 0.523%.
Under `Cc1ccc(-n2c(SCC(=O)O)nnc2-c2cccc(C)c2)cc1` stands -7.34%.
Under `CCCOCC(=O)NC1CCc2nc(C)cn2C1` (stereo not given) stands -2.67%; under `O=C(CCC(=O)Nc1nnc(C2CCCCC2)s1)NCC1CCCO1` (stereo not given), -12.1%.
As to `COCC[C@]1(O)CCN(Cc2nc(C)cs2)C[C@H]1C`, the cytotoxicity at 70.5 h amounted to 15.3%.
As for `Cn1cc(CNC2CCCN(Cc3noc(C4CC4)n3)C2)cn1` (stereo not given), the figure is 3.36%.
Under `CCC(CC)n1nc(C)cc1NC(=O)C1CCCO1` (stereo not given) stands -8.67%.
As for `CC(CC(=O)N1CCN(c2cnccn2)CC1)c1ccc(F)cc1` (stereo not given), the figure is 0.499%.
In the case of `COCC(=O)N1CCCC(Cc2cnc(-c3c(C)n[nH]c3C)cn2)C1` (stereo not given), the cytotoxicity at 70.5 h worked out at 0.347%.
As for `CN(C)C(=O)N1CC2(CCN(CC3CC3)CC2)c2cc(F)ccc21`, the figure is 19.9%; as for `COc1ccc2c(ccn2CC(=O)Nc2n[nH]c(C(C)C)n2)c1`, -12.1%; as for `CC(NC(=O)Nc1ccc(-c2csnn2)cc1)C(=O)NC(C)(C)C` (stereo not given), -9.46%.
In the case of `Cc1cc(CNCC2CNc3ccnn3C2)no1` (stereo not given), the cytotoxicity at 70.5 h came to 19.3%.
As for `CC(NC(=O)NCCCN1CCCCCC1)c1nncn1C` (stereo not given), the figure is 0.545%; as for `Cc1cnc(N2CC3(CCN(C(=O)c4ccoc4)C3)C2)nc1`, -2.31%.
Consider `Cc1cc(C)n(CC2CCCCN2C(=O)c2ccc3[nH]nnc3c2)n1` (stereo not given), for which the cytotoxicity at 70.5 h is -17.7%.
For `CCN1C(=O)C(c2ccccc2)CC12CCN(CCO)CC2` (stereo not given), the cytotoxicity at 70.5 h was -13.9%.
Under `CCc1nnsc1C(=O)N(C)Cc1ccco1` stands -1.63%; under `CCN(CCN1CCCCCC1)C(=O)COc1cccnc1`, 16%.
Turning to `CC(C)(C)c1nc(CN2CCC(c3ccnn3CCO)CC2)no1`, the cytotoxicity at 70.5 h is -0.084%.
On to `O=C1CC2(CCNCC2)C(=O)N1c1cccc(F)c1`, for which the cytotoxicity at 70.5 h was -0.489%.
Take `Cc1n[nH]c2c1C(c1ccc(Br)cc1)SCC(=O)N2` (stereo not given): the cytotoxicity at 70.5 h is -8.1%.
For `c1cncc(-c2noc(CN3CCCC(Cn4cncn4)C3)n2)c1` (stereo not given), the cytotoxicity at 70.5 h was determined as 9.23%.
As for `CO[C@H]1CCN(Cc2c(C)noc2C)[C@@H]2CN(Cc3ccncc3)C[C@H]12`, the figure is -5.37%; as for `CN(CC(=O)NC1CC1)S(=O)(=O)c1ccc(F)cc1Cl`, -3.95%.
Consider `CC(C)=CCCC1(C)CCC(=O)N(CCc2csc(N)n2)C1` (stereo not given), for which the cytotoxicity at 70.5 h was -5.28%.
Under `Cc1nc[nH]c1CN1CCc2nc3scc(C)c3c(=O)n2CC1` stands -1.43%; under `CC(C)c1ccc(-n2ncc(C(=O)N(C)C3CCN(C)CC3)c2N)cc1`, -2.55%.
`CC(C)N(CCCNC(=O)C1CCOCC1)S(C)(=O)=O`: the cytotoxicity at 70.5 h was -5.89%.
For the compound `CCOC(=O)C1CCN(Cc2csc(-c3ccc(C)o3)n2)CC1`, the cytotoxicity at 70.5 h is -3.12%.
`CCn1nc(C)cc1C(=O)NCc1cc(N(C)C)nc2ccccc12`: the cytotoxicity at 70.5 h is 9.21%.
Under `COc1ccc(S(=O)(=O)N2CCC(S(C)(=O)=O)CC2)cc1C` stands 5.77%.
Under `Cc1cnn(CC(C)NCc2csc(-c3ccco3)n2)c1` (stereo not given) stands 4.15%.
Under `Cc1nc(CNCc2ccc(OC34CCCN(CC3)C4)cc2)n[nH]1` (stereo not given) stands -5.4%; under `CCCNC(=O)CN1CCC(C(=O)Nc2cnn(CC)c2)CC1`, -10.8%.
Regarding `CN(C)C(=O)CN1CC[C@H]2CN(S(C)(=O)=O)C[C@@H]2C1=O`, the cytotoxicity at 70.5 h is -3.84%.
Under `Cc1[nH]ncc1CCCNC(=O)N1CCN2CCCCC2C1` (stereo not given) stands 8.45%; under `Cc1oc(-c2ccco2)nc1CC(=O)N1CCN(C2CCC2)CC1`, -1.12%.
In the case of `COCC(=O)N1CCN(CC2CC2)c2ncccc2C1`, the cytotoxicity at 70.5 h is 15.5%.
Under `Cc1ccnc(C2COCCN2C)n1` (stereo not given) stands -3.5%; under `Fc1ccccc1CC1CCN(Cc2ccccn2)CC1`, -5.22%.
Regarding `CCOc1cc(CNCc2cnc(C)cn2)c(Cl)cc1OC(C)C`, the cytotoxicity at 70.5 h was 3.1%.
With `CC(C)n1cc(CN(Cc2ccsc2)CC2CCCO2)cn1` (stereo not given), the cytotoxicity at 70.5 h was -1.43%.
For `Cc1cc(CN2CCC(CNC(=O)c3ccc(C#N)cc3)C2)[nH]n1` (stereo not given), the cytotoxicity at 70.5 h was -0.514%.
On to `Cn1c2ccc(F)cc2c2ncn(CCCN(CCO)CCO)c(=O)c21`, for which the cytotoxicity at 70.5 h came to 18.9%.
Under `CNC(=O)NC(=O)COc1c(C(C)=O)ccc(Cl)c1Cl` stands -9.38%; under `CN(Cc1ccc(F)cc1)C(=O)NCc1nnc2n1CCC2`, -10.4%; under `Cc1cc(C)n(-c2cncc(N3CCN(C(=O)C(C)(C)C)CC3)n2)n1`, 1.04%.
As for `CN(Cc1ccccc1)CC(O)Cn1cnc2cc(F)ccc2c1=O` (stereo not given), the figure is -7.28%.
Under `CCOC(C)c1nccn1Cc1cc(C)on1` (stereo not given) stands -1.6%; under `COCCCNc1c(C#N)c2c(c3nncn13)CN(C)CC2`, -28.4%.
For the compound `Cc1cccc(-c2nc(C)nn2CN2CCN(S(C)(=O)=O)CC2)c1`, the cytotoxicity at 70.5 h is -3.93%.
`NC(=O)CN1CC2(CCC1=O)CCN(Cc1ccc(F)cc1Cl)CC2`: the cytotoxicity at 70.5 h was -1.9%.
Under `Cc1cc2ccccc2n1CCC(=O)N1CCCC2(CC1)CNC(=O)O2` (stereo not given) stands -7.42%; under `Cn1ccn2ncc(C(=O)NCc3cccnc3N3CCCC(O)C3)c12` (stereo not given), -18.3%.
As for `CCc1c(O)nc(SC(C)CC)n(-c2ccccc2)c1=O` (stereo not given), the cytotoxicity at 70.5 h was -7.78%.
Under `COCCN(C)CC(=O)N1C[C@@H](NC(C)=O)[C@H](c2ccc(OC)cc2)C1` stands -17.6%; under `Cc1nccc([C@@H]2C[C@@H]3CCN(Cc4ccco4)C[C@H]3O2)n1`, 12.2%; under `O=C(COc1coc(CN2CCCC2)cc1=O)Nc1ccc(Cl)c(Cl)c1`, -7.3%.
Under `Cc1ccccc1Oc1ncccc1CNC(=O)Cn1cccnc1=O` stands 3.17%; under `Cc1ccc(CN2CCN(Cc3ccncc3)CC2=O)cc1`, -0.378%.
As for `Cn1nc(C2CCCN(Cc3ccsc3)C2)c2nccnc21` (stereo not given), the figure is -0.972%.
Turning to `CCn1cc(NC(=O)C(C)n2ncc(Cl)c2C)c(C(=O)NC)n1` (stereo not given), the cytotoxicity at 70.5 h is -3.34%.
Take `CCc1cc(CN(C)C(=O)CN2CC3(CCNCC3)OC2=O)on1`: the cytotoxicity at 70.5 h is -2.42%.
As for `CN1CCN(Cc2cnc3n2CCN(Cc2cccnc2)CC3)CC1`, the figure is -1.41%; as for `Cc1c(C(=O)NCC(C)(C)S(C)(=O)=O)cccc1-c1ccccn1`, -16.9%; as for `CCc1nsc(N2CCN(CC(=O)Nc3c(C)n[nH]c3C)CC2)n1`, 2.39%.
For `COc1ccc(CN2CC[C@H](O)[C@@H]2Cc2cnn(C)c2)cc1`, the cytotoxicity at 70.5 h is -11.4%.
Under `Cn1ncc2ccc(C3CCCN(Cc4cccs4)C3)nc21` (stereo not given) stands -0.364%; under `Cc1ccc(OCCN(C)C(C)c2cccc(S(N)(=O)=O)c2)cc1` (stereo not given), 1.1%; under `CCNC(=O)N1CC[C@H]2CC(=O)N(C3CCCCC3)CC[C@H]2C1`, -5.33%.
As for `CC(C)c1ocnc1C(=O)N1CCC2(CC1)OCCO2`, the figure is -8.01%.
As for `Cn1c(=O)[nH]c2cc(C(=O)OCCCn3ccccc3=O)ccc21`, the figure is 33.2%; as for `c1cc(CN2CCOC[C@H]2c2nc(-c3ccncc3)c[nH]2)ccn1`, 1.86%; as for `CCN(C)c1ccc(C(=O)N(CCOC)Cc2ccccn2)cc1`, 14.7%.
For the compound `O=C(CN1CCCC(c2ncc[nH]2)C1)NCCCN1CCCCCC1=O` (stereo not given), the cytotoxicity at 70.5 h was -10.5%.
For `CN1CCN(S(=O)(=O)N2CCCCC2CCc2ccc(O)cc2)CC1` (stereo not given), the cytotoxicity at 70.5 h is -4.09%.
As for `COc1cccc(-c2cc(C(=O)N3N=C(C)CC3(O)C(F)(F)F)[nH]n2)c1` (stereo not given), the figure is -16.8%.
As for `CC(C)Oc1cccc(CC(=O)N(CC(N)=O)C2CCCC2)c1`, the figure is -6.57%; as for `COCCNC(=O)c1cc2c(s1)CCN2C(=O)c1ccccc1`, 6.46%; as for `CN1Cc2ccccc2CC2(CCN(C(=O)[C@H]3CCCO3)CC2)C1=O`, -4.74%.
In the case of `CC(NC(=O)CNc1cc2c(cc1Cl)NC(=O)CO2)c1ccco1` (stereo not given), the cytotoxicity at 70.5 h is 14.6%.
Under `O=c1c2cccnc2cnn1CC(O)c1ccc(F)c(F)c1` (stereo not given) stands -6.63%; under `COc1ccc(CN2C[C@@H](CN(C)C)[C@@H](CO)C2)cc1CN1CCCC1`, 5.87%; under `Cc1ccc(C(=O)N2CCC3(CCC(=O)N(CCCO)C3)CC2)c(O)c1`, -8.79%.
As for `CNc1ncc(CN(C)C2CCN(C(C)C)CC2)cn1`, the figure is -3.89%.
As for `c1ccc(OCCCNCc2cccs2)nc1`, the figure is 10.1%.
`O=C(NCc1cnc2n1CCN(Cc1ccsc1)CC2)C1CCC1`: the cytotoxicity at 70.5 h is -10.8%.
Turning to `CCCc1nnc(NC(=O)NC(C)Cn2cccn2)s1` (stereo not given), the cytotoxicity at 70.5 h was -0.592%.
As for `Cc1cc(N2CCCCC2Cn2nc(C)cc2C)n2ncnc2n1` (stereo not given), the cytotoxicity at 70.5 h was -4.18%.
Under `CN(C)CCn1ccnc1C1CCN(C(=O)CCC(F)(F)F)CC1` stands -7.92%; under `COC(=O)NCC(=O)N(C)Cc1csc(-c2cccs2)n1`, 3.35%.

Source of the values: ChEMBL document CHEMBL3507680, “University of Dundee, Gates Library screen for HepG2 cell viability”.
